Read-outs that look alike come from different tables or passages of the source.

The test deals with H. pylori. Put plainly: Checkerboard method, adjuvant effect of probiotic supernatant on antibiotic MIC/MBC. To be noted: for MBC / MIC: Helicobacter pylori; for MBC: read-out: MBC towards the H. pylori strain; for MIC: read-out: MIC towards the H. pylori strain. The test is classed as cell-based, Helicobacter pylori.
[1] abbreviates: probiotic supernatant (L. acidophilus La-14) added to antibiotic.

For orientation: MBC means the lowest tested concentration that kills the bacteria rather than only halting them. As a reminder, the MIC is the lowest concentration found to suppress growth. `CC[C@H]1OC(=O)[C@H](C)[C@@H](O[C@H]2C[C@@](C)(OC)[C@@H](O)[C@H](C)O2)[C@H](C)[C@@H](O[C@@H]2O[C@H](C)C[C@H](N(C)C)[C@H]2O)[C@](C)(OC)C[C@@H](C)C(=O)[C@H](C)[C@@H](O)[C@]1(C)O` [Clarithromycin, clarithromycin]: for the setting “antibiotic alone”, the minimum bactericidal concentration (MBC) came out at 24 µg/mL and the MIC was determined as 12 µg/mL. For the same molecule, under setting [1], the minimum bactericidal concentration (MBC) amounted to 0.25 µg/mL, the minimal inhibitory concentration (MIC) was found to be 0.125 µg/mL, the “MIC with probiotic supernatant as fraction of the original MIC” value is listed as 1/100 and the “increase of antibiotic activity against H. pylori” value stood at 100 folds.
For the molecule `CC1(C)S[C@@H]2[C@H](NC(=O)[C@H](N)c3ccc(O)cc3)C(=O)N2[C@H]1C(=O)O` [Amoxicillin, amoxicillin], where the note is “antibiotic alone”, the minimum bactericidal concentration (MBC) was found to be 0.5 µg/mL and the minimal inhibitory concentration (MIC) was found to be 0.25 µg/mL. Also, under setting [1], the MBC came out at 0.0005 µg/mL, the MIC was 0.00025 µg/mL, the “MIC with probiotic supernatant as fraction of the original MIC” value is recorded as 1/1000 and the “increase of antibiotic activity against H. pylori” value turned out to be 1000 folds.

The record behind these values is patent US12029768B2, “Probiotics useful for eradicating helicobacter pylori infection” (DACF S.r.l., priority 2018, dated 2024).
